One block for each compound: values may come before it.
Experiments:
[1] = biological target: T1, Transient receptor potential cation channel subfamily V member 1 (Homo sapiens, UniProt Q8NER1); assay: Antagonist activity at human TRPV1 expressed in HEK293 cells assessed as inhibition of capsaicin-induced Ca2+ influx by fluorescence based assay; type: cell-based
Mus musculus = species: Mus musculus; assay: Antipruritic effect in mouse assessed as reduction in histamine-induced itching duration relative to control; type: functional; design: scale not given: the % may be the effect or the level left
[2] = biological target: T1, Transient receptor potential cation channel subfamily V member 1; assay: Binding affinity to human TRPV1 assessed as inhibition constant
[3] = biological target: T1, Transient receptor potential cation channel subfamily V member 1; assay: Antagonist activity at human TRPV1
[4] = biological target: T1, Transient receptor potential cation channel subfamily V member 1; assay: Antagonist activity at human TRPV1 assessed as inhibition of capsaicin-induced increase in intracellular Ca2+ level; type: cell-based
[5] = biological target: T2, Prostaglandin G/H synthase 2 (Homo sapiens, UniProt P35354); assay: Inhibition of COX-2 (unknown origin)
T2 sequence (P35354 whole entry): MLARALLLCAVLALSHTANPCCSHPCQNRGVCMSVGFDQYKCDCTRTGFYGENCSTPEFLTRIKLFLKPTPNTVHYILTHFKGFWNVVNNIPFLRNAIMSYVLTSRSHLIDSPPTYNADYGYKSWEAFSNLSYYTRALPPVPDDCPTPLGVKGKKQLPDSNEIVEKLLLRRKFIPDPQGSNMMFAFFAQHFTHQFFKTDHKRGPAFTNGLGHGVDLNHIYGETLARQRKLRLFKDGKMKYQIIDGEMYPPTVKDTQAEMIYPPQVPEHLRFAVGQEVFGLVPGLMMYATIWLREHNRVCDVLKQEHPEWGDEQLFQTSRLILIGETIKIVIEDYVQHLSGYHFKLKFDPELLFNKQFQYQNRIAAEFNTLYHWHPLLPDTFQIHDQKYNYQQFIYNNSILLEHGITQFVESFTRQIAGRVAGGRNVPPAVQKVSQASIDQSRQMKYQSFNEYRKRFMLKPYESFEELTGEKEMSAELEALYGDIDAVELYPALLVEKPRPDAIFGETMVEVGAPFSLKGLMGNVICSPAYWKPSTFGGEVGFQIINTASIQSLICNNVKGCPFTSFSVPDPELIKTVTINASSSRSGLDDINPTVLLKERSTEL

[6] = biological target: T3, Transient receptor potential cation channel subfamily V member 1 (Rattus norvegicus, UniProt O35433); assay: Inhibition of rat TRPV1 assessed as inhibition of capsaicin-induced increase in intracellular Ca2+ level; type: cell-based
[7] = biological target: T1, Transient receptor potential cation channel subfamily V member 1; assay: Antagonist activity at human TRPV1 assessed as inhibition of pH-induced increase in intracellular Ca2+ level; type: cell-based
[8] = biological target: T1, Transient receptor potential cation channel subfamily V member 1; assay: Antagonist activity at human TRPV1 expressed in HEK293 cells assessed as inhibition of NADA-induced increase in intracellular Ca2+ level incubated for 2 mins by scintillation counter analysis; type: cell-based
[9] = biological target: T1, Transient receptor potential cation channel subfamily V member 1; assay: Antagonist activity at human TRPV1 expressed in HEK293 cells assessed as inhibition of capsaicin-induced increase in intracellular Ca2+ level incubated for 2 mins by scintillation counter analysis; type: cell-based
[10] = biological target: T3, Transient receptor potential cation channel subfamily V member 1; assay: Antagonist activity at rat TRPV1 expressed in CHO cells assessed as inhibition of pH-induced increase in intracellular Ca2+ level by fluorescence based analysis; type: cell-based
[11] = Antagonist activity at Xenopus oocytes TRPV1 assessed as inhibition of capsaicin-induced increase in intracellular Ca2+ level; type: cell-based; conditions: Xenopus laevis
[12] = biological target: T1, Transient receptor potential cation channel subfamily V member 1; assay: Antagonist activity at capsaicin-induced human TRPV1 activation
[13] = biological target: T1, Transient receptor potential cation channel subfamily V member 1; assay: Antagonist activity at human TRPV1 assessed as inhibition of AITC-induced increase in intracellular Ca2+ level; type: cell-based
[14] = biological target: T3, Transient receptor potential cation channel subfamily V member 1; assay: Antagonist activity at rat TRPV1 assessed as inhibition of pH-induced increase in intracellular Ca2+ level; type: cell-based
[15] = biological target: T1, Transient receptor potential cation channel subfamily V member 1; assay: Antagonist activity at human TRPV1 expressed in HEK293 cells assessed as inhibition of capsaicin-induced increase in intracellular Ca2+ level by FLIPR-based Ca2+ assay; type: cell-based

T3 sequence (O35433 whole entry): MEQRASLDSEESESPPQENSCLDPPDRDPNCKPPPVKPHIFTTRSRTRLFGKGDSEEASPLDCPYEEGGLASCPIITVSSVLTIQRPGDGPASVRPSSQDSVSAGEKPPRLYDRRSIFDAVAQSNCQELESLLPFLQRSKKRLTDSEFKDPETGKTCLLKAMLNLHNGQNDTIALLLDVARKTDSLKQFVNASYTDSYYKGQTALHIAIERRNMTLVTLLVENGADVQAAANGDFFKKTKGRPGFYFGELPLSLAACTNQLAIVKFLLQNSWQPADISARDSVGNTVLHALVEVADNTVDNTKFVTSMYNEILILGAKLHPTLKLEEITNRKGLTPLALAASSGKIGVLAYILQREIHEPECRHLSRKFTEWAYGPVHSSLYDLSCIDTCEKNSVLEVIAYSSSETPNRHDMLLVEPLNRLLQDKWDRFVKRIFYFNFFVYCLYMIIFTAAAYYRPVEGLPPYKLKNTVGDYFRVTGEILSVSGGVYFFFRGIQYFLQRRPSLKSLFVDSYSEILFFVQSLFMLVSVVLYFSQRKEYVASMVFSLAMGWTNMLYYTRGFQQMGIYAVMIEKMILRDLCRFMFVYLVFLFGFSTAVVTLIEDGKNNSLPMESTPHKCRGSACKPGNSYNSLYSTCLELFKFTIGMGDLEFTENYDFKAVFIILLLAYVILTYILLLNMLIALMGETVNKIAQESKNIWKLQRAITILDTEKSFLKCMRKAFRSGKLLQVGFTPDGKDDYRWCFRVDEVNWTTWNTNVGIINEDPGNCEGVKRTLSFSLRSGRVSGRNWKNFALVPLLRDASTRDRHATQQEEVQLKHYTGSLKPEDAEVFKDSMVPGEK
T1 sequence (Q8NER1 whole entry): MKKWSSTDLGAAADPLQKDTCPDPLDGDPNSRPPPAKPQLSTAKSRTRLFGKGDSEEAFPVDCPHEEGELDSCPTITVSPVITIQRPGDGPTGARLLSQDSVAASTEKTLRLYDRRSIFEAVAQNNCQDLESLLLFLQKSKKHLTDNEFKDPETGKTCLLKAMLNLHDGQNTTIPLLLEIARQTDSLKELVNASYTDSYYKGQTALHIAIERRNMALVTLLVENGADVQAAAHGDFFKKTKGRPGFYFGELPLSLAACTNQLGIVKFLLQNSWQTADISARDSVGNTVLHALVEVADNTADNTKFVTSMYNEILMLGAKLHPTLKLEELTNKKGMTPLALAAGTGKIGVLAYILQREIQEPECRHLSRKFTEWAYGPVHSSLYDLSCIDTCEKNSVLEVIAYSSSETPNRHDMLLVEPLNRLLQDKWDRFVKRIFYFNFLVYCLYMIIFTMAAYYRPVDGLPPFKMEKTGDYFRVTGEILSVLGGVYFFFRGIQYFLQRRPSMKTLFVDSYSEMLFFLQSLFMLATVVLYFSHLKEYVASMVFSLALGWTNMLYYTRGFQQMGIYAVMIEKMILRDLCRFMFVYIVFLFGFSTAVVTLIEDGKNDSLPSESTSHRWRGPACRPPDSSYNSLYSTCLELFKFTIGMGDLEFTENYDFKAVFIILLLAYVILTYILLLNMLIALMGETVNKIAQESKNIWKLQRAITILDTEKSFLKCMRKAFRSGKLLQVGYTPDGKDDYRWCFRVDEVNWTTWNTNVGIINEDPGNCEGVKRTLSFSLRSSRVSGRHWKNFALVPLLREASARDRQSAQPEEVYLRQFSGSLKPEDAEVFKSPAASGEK

IC50 [1]: 22 nM
Structure (SMILES): C=Cc1cc([C@@H](C)NC(=O)/C(C)=C/c2ccc(C(C)(C)C)cc2)ccc1NS(C)(=O)=O

Structure (SMILES): CCCCCCCCCCCC(=O)OCC(=O)NCc1cc(OC)c(O)cc1I
Activity (Mus musculus): <1%

Structure (SMILES): CN(C)C1(Cc2ccccc2)CCN(c2cc(C(F)(F)F)ccc2CNC(=O)Nc2cccc3ncccc23)CC1
Ki [2]: 32 nM
IC50 [3]: 10.8 nM

IC50 [4]: 2.6 nM
Structure (SMILES): CC1CCN(c2nc(C(F)(F)F)ccc2CNC(=O)Cc2c(F)cccc2Cl)CC1

IC50 [5]: 11 nM
Structure (SMILES): COc1cc(C(=O)NS(=O)(=O)c2ccc(-n3nc(C(F)(F)F)cc3-c3ccc(C)cc3)cc2)ccc1O

IC50 [5]: 23 nM
IC50 [6]: 140 nM
Structure (SMILES): COc1cc(/C=C/C(=O)NS(=O)(=O)c2ccc(-n3nc(C(F)(F)F)cc3-c3ccc(C)cc3)cc2)ccc1O

IC50 [4]: 84 nM
IC50 [7]: 313 nM
Structure (SMILES): O=C(Nc1ccc(Br)cc1)[C@@H]1CCCN1C(=O)Nc1cccc2cnccc12

IC50 [8]: 7 nM
IC50 [9]: 19 nM
Structure (SMILES): CCC1(CC)CC(NC(=O)Nc2cccc3c(C)nccc23)c2cc(F)ccc2O1 (stereo unspecified)

IC50 [10]: 140 nM
Structure (SMILES): O=C1/C(=N\Nc2ccccc2)C(C(F)(F)C(F)(F)F)=NN1c1ccccc1

IC50 [11]: 33300 nM
Structure (SMILES): C[C@H]1O[C@H](O[C@H]2[C@H](Oc3cc(O)c4c(c3)O[C@H](c3ccc(O)cc3)CC4=O)O[C@H](CO)[C@@H](O)[C@@H]2O)[C@H](O)[C@@H](O)[C@H]1O

IC50 [12]: 9.8 nM
Structure (SMILES): Cc1cc(C)nc(NC(=O)N2CCN(Cc3ccccc3N3CCCC3)CC2)c1

IC50 [4]: 45000 nM
Structure (SMILES): O=C(C(c1ccccc1)N1C(=O)CCC1=O)N1CCN(c2cccc(C(F)(F)F)c2)CC1 (stereo unspecified)

IC50 [4]: 90 nM
Structure (SMILES): COc1cc(CNC(=O)COC(=O)/C=C(\C)CC=C(C)C)c(I)cc1O

IC50 [4]: 9800 nM
IC50 [13]: 16200 nM
Structure (SMILES): O=C1C[C@@H](c2ccc(O[C@@H]3O[C@H](CO)[C@@H](O)[C@H](O)[C@H]3O)cc2)Oc2cc(O)ccc21 [LIQUIRITIN]

IC50 [14]: 6 nM
IC50 [15]: 3 nM
Structure (SMILES): O=C(Nc1ccccc1Br)N[C@@H]1CCN(c2ccc(C(F)(F)F)cn2)C1 [SB-705498]
